Data reported in ChEMBL document CHEMBL1201862, “PubChem BioAssay data set” (2004).
Active and inactive are the calls of the source.

Assays:
[1] = Trypanosoma cruzi growth suppression in host cells – NIH3T3 host cells, beta-gal luminescence, confirmation (AID 2044); assay type: functional, cell-based;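 further: intracellular parasites grown in NIH/3T3 mouse fibroblasts as host cells; luminescent beta-galactosidase reporter signal from transgenic T. cruzi replicating inside host cells; inhibitors lower the luminescence signal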
[2] = NIH3T3 cell viability loss – ATP luminescence, mouse fibroblasts, counter-screen, dose response (AID 2010); assay type: functional, cell-based;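 further: cells exposed to compound for about 90 hours before reading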
[3] = molecular target: Cytochrome P450 2C9 (Homo sapiens, UniProt P11712)
Sequence of Cytochrome P450 2C9 (P11712 whole entry): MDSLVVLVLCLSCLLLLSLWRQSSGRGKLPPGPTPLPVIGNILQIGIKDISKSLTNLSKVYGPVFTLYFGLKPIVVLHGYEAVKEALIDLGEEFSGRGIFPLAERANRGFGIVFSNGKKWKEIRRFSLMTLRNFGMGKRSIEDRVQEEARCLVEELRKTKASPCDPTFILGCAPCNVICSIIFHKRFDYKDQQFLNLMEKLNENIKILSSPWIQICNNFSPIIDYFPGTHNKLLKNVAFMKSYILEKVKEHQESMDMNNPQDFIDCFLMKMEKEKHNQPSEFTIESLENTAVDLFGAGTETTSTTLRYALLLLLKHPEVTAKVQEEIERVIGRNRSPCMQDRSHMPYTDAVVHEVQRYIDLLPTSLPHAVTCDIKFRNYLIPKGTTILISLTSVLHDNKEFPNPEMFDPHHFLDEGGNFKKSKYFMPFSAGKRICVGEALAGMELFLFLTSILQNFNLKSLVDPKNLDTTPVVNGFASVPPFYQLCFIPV

[4] = molecular target: T1, Cytochrome P450 1A2 (Homo sapiens, UniProt P05177);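 further: PubChem cytochrome P450 panel assay, CYP1A2 panel member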
T1 sequence (P05177 whole entry): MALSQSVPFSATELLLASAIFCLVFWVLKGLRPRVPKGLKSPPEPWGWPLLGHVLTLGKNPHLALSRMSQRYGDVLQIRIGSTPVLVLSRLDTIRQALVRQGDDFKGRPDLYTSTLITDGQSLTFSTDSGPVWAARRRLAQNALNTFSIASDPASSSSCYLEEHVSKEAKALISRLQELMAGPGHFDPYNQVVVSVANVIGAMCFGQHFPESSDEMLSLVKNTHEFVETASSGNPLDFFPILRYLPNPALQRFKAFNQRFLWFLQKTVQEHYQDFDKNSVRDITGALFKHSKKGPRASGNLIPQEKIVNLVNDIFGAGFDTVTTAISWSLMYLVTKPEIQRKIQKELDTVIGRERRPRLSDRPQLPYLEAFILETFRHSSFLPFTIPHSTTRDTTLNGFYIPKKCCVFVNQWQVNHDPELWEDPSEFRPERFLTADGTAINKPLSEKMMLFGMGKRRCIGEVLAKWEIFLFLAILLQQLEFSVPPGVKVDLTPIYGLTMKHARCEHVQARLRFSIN

[5] = molecular target: Cytochrome P450 3A4 (Homo sapiens, UniProt P08684);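 further: CYP3A4 tested as one member of a cytochrome P450 panel screen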
Sequence of Cytochrome P450 3A4 (P08684 whole entry): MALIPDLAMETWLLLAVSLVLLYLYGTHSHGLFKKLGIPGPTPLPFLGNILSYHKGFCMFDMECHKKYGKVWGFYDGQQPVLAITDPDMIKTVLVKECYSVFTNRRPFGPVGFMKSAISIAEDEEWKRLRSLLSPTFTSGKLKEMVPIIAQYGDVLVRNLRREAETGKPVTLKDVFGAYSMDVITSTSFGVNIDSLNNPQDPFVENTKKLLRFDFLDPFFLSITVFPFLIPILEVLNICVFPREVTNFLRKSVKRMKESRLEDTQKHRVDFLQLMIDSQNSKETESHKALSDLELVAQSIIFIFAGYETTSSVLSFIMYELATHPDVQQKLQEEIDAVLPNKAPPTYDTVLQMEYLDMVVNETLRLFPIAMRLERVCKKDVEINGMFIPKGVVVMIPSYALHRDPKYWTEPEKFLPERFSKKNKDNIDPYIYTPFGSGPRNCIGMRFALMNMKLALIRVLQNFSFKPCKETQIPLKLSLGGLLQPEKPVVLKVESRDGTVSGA

AC50 [3]	AC50 [4]	SMILES	EC50 [1]	EC50 [2]	further results
0.251 µM (inconclusive)		CN(C)c1ncc2nc(-c3ccc(F)cc3)c(=O)n(C3CC3)c2n1			
39.8 µM (inconclusive)		Cn1c(=O)c(-c2cccs2)nc2cncnc21			
	12.6 µM (inconclusive)	CCc1ccc(OCC(=O)OC2CCS(=O)(=O)C2)cc1 (centres undefined)			
	31.6 µM (inconclusive)	CCCCCCCC(=O)O[C@H](CC(=O)O)C[N+](C)(C)C [OCTANOYLCARNITINE]			
22.4 µM (inconclusive)	25.1 µM (inconclusive)	COc1cc2c(C(=O)N3CCN(C)CC3)c(C)n(-c3ccccc3)c2cc1Br			
2.82 µM (inconclusive)		CCc1sc(-c2c(C#N)c(N)nc3c2CCCCCC3)cc1[N+](=O)[O-]			
	6.31 µM (inconclusive)	CC(C)(CO)N1CCN(C(S)=Nc2ccccc2)CC1			
20 µM (inconclusive)		CCNCc1cc(OCC)c(OCC(=O)NCCc2ccccc2)cc1Cl			
	28.2 µM (inconclusive)	C=CCNc1cnn(-c2ccc(C)cc2)c(=O)c1Cl			
	8.91 µM (inconclusive)	O=C(CCC(=O)OCc1ccc(C(=O)Oc2ccccc2)cc1)Nc1cccc2ccccc12			
0.794 µM (inconclusive)		COc1ccc(OC)c(NC(=O)c2cc3n(n2)C(C(F)(F)F)CC(c2ccc4c(c2)OCO4)N3)c1 (centres undefined)			
6.31 µM (inconclusive)		O=[N+]([O-])c1ccc([C@@H](Nc2ccccc2)c2ccc3cccnc3c2O)cc1			

More lines, now with the values behind:

SMILES	AC50 [3]	AC50 [4]	EC50 [1]	EC50 [2]	further results
Cc1ccc(C)c(N2CCN(C(=O)c3ccc(Cn4c(=S)[nH]c5ccc(N6CCOCC6)cc5c4=O)cc3)CC2)c1			0.458 µM (active)	> 60 µM (not active)	
Cc1cccc(Nc2nc(-c3ccncc3)cs2)c1			0.154 µM (active)	6.1 µM (active)	
CN1CCCC2(CCN(S(=O)(=O)c3ccccc3)CC2)C1		20 µM (inconclusive)			
Cc1cccc(N(CC(=O)NC2CCCC2)C(=O)c2cc3cc4cccc(C)c4nc3s2)c1C			1.6 µM (active)	> 60 µM (not active)	
COc1cccc(Nc2ncc3nc(-c4cccs4)c(=O)n(Cc4cccs4)c3n2)c1		2 µM (inconclusive)			
COc1c(F)c(F)c(C(=O)O)c(Nc2ccc(C)cc2)c1F		22.4 µM (inconclusive)			
OCCNCCCOc1cccc(Cl)c1Cl					AC50 [5]: 31.6 µM (inconclusive)
C=CC[C@@H]1C=C[C@@H](O/N=C\C[C@@H]2C=C[C@H](OC(C)=O)[C@H](COC(C)=O)O2)[C@@H](CO)O1					AC50 [5]: 3.98 µM (inconclusive)
O=C(Cn1cnc2cc([N+](=O)[O-])ccc2c1=O)Nc1ccccc1-c1ccccc1			0.629 µM (active)	> 30 µM (not active)	
FC(F)(F)c1nc2ccc(SSc3ccc4nc(C(F)(F)F)[nH]c4c3)cc2[nH]1	7.94 µM (inconclusive)	0.501 µM (inconclusive)			
Cc1ccc(-c2cc(C(F)F)n3ncc(C(=O)N4CCN(c5ccccn5)CC4)c3n2)cc1			0.5 µM (active)	> 60 µM (not active)	
CCCNC(=O)OC[C@@H]1O[C@H](CCO/N=C2\c3cc(OC)ccc3O[C@H](c3cccc(OC)c3)[C@H]2O)C=C[C@@H]1Oc1ccc(OC)cc1	6.31 µM (inconclusive)				
Clc1ccc(OCCCCCN2CCCC2)c(Br)c1			0.231 µM (active)	10.9 µM (active)	
CCOC(=O)CNS(=O)(=O)c1cc(-c2nn(C)c(=O)c3ccccc23)ccc1C					AC50 [5]: 39.8 µM (inconclusive)
CC(=O)Nc1cccc(NC(=O)C2CCCN2C(=O)Nc2ccccc2C)c1 (centres undefined)	20 µM (inconclusive)	25.1 µM (inconclusive)			
CCc1ccc(OCCNC(=O)c2ccccc2SCc2ccc(F)cc2)cc1			2.67 µM (active)	> 60 µM (not active)	
COc1ccccc1CN1CCCC(C(=O)c2ccccc2SC)C1 (centres undefined)			1.6 µM (active)	> 60 µM (not active)	
CN1CCN(/N=C/c2ccc(-c3ccc([N+](=O)[O-])cc3)o2)CC1			1.11 µM (active)	> 60 µM (not active)	
Cc1cccc(NC(=O)c2cccc(Cn3cc(Br)c([N+](=O)[O-])n3)c2)c1C			0.834 µM (active)	39 µM (active)	
